Consider 3 molecules from patent US20080113907A1, “Uses Of Galectin-2” (Charite-Universitat-Smedizin Berlin, priority 2004, published 2008).

The chains are these.
B1: CD7 (receptor, human, UniProt P09564 26-240, looked up)
chain: AQEVQQSPHCTTVPVGASVNITCSTSGGLRGIYLRQLGPQPQDIIYYEDGVVPTTDRRFRGRIDFSGSQDNLTITMHRLQLSDTGTYTCQAITEVNVYGSGTLVLVTEEQSQGWHRCSDAPPRASALPAPPTGSALPDPQTASALPDPPAASALPAALAVISFLLGLGLGVACVLARTQIKKLCSWRDKNSAACVVYEDMSHSRCNTLSSPNQYQ
notes: whole, on cells

Assay [1] concerns T cells (PBT, LPT). The assay is described as follows: Adhesion assay to collagen type I and fibronectin. To be noted: CD3 activated PBT. Type of assay: cell-based, human. How it is done: 96 well flat-bottom plates were precoated overnight at 4° C. with 12 μg/well fibronectin (Chemicon) in DPBS, 40 μg/well collagen type I (Sigma-Aldrich) in 0.1 M acetic acid, or 3% BSA (Sigma-Aldrich) in DPBS as a control and then washed three times with DPBS. Freshly isolated T cells were fluorescently-labelled with 5 μM calcein-AM (Molecular Probes, Eugene, Oreg.) for 30 min at 37° C. in 5% CO2 at 5×10^6 cells/ml in RPMI. The cells were then washed three times with RPMI containing 5% FCS. Calcein-labelled T cells were resuspended in RPMI and 5×10^5 T cells/well were added to 96-well plates containing purified ECM components or BSA for the indicated times. Saturating concentrations of integrin-blocking mAbs (predetermined by flow cytometry) were preincubated with T cells for 30 min at 37° C. before adding T cells to the wells for the adhesion assay. Nonadherent cells were removed by a standardized washing technique that was developed to minimize background binding, which includes both an orbital and a rocking motion repeated three times with RPMI. Adhesion was quantified with a multiwell fluorescent spectrophotometer (Tecan, Groedig, Austria). For each experimental group the results were expressed as the mean percentage±SD of bound T cells from triplicate wells.

Assay [2] deals with PBT. Description: Analysis of T cell cycling (DNA content, cyclin B1, cell cycle regulators). Type of assay: cell-based, human. The settings on record: anti-CD3 activated PBT; dropped from 8% (galectin-1) and 7% (galectin-7). How it is done:
(§1) For immunoblotting cells were washed in PBS, and lysed in cell lysis buffer (1% Triton-X, 0.5% NP-40, 0.1% SDS, 0.5% sodium deoxycholate, 5 mM EDTA, 50 mM and 50 mM protease- and phosphatase-inhibitor cocktail 2, 1 mM PMSF, 100 μg/ml trypsin-chymotrypsin inhibitor, 100 μg/ml chymostatin in PBS). The concentration of proteins in each lysate was measured using the Bio-Rad protein assay (Bio-Rad Laboratories, Hercules, Calif.). Equivalent amounts of protein (10 μg) were fractionated on a 10-20% Tris-glycine gel and electrotransferred to a nitrocellulose membrane (Novex, San Diego, Calif.). Membranes were blocked with 5% milk in 0.1% Tween 20-PBS (Fisher Scientific, Hanover Park, Ill.), followed by incubation for 60 m in at room temperature with the indicated primary antibody. The membranes were washed six times with 0.1% Tween 20-PBS and then incubated for 1 h with the appropriate horseradish peroxidase-conjugated secondary antibody (Santa Cruz Biotechnology), washed, and incubated with the chemiluminescent substrate (Perkin-Elmer, Carlsbad, Calif.) for 5 minutes. The membranes were then exposed to film (Amersham, Arlington Heights, Ill.).
Flow cytometry was performed after staining for DNA content, and cyclin B1, essentially as previously described (21). Briefly, cells were washed twice with PBS, adjusted to 1×10^6 cells/sample and fixed in 90% Methanol at −20° C. After fixation, cells were washed twice with PBS, incubated for 45 min at 4° C. with a cyclin B1-FITC conjugated monoclonal antibody. After the final wash, cells were resupended in PBS and 5 μl of RNase (0.6 μg/ml, 30-60 Kunitz Units, Sigma), incubated at 37° C. for 15 min and the chilled on ice. One hundred and twenty five microliters of PI (200 μg/ml) were added prior to analysis by flow cytometry. Each analysis was performed on at least 25.000 events.

Assay [3] relates to CD3, CD7, β1 integrin. Description: Magnetic separation / co-immunoprecipitation of galectin containing complexes. In kind it is binding, human. The settings on record: galectin coated beads, immunoblot for CD3, CD7, β1. How it is done: as §1, with “Ill.). […]” for “Ill.).”
Background: In western blotting, separated proteins are transferred to a membrane and probed.

In assay [4] the test system is T cells (PBT, LPT). The assay is described as follows: Integrin accessibility on T cell surface (flow cytometry). Type of assay: cell-based, human. To be noted: CD3 activated PBT. How it is done:
For surface staining, cells were washed twice in ice-cold PBS and 1×10^6 cells were resuspended in flow buffer (HBSS containing 1% BSA and 0.1% sodium azide). Cells were incubated with the respective mAb at predetermined saturating concentrations or with isotype-matched nonspecific mouse mAb (DAKO) for 30 min at 4° C., washed twice with flow buffer, and incubated with FITC-conjugated goat anti-mouse IgG for 30 min at 4° C. The cells were again washed twice with flow buffer, fixed in 1% paraformaldehyde and analyzed by a single laser flow cytometer (FacsCalibur, […]), using Cell Quest software (BD Pharmingen). Cells stained with a negative control Ab were gated to contain <2% positive cells. To perform analysis of intracellular proteins, cells were washed twice with PBS, adjusted to 1×10^6 cells per sample, and fixed in 90% methanol at −20° C. After fixation, cells were washed twice with PBS and incubated with a monoclonal mouse anti-bax, Bcl-2, Rb, Cyclin A, p21, p27, or p53 antibody for 45 minutes at 4° C., followed by an incubation with a goat anti-mouse FITC-conjugated mAb (Biosource) for 45 minutes at 4° C. Thereafter cells were washed and analyzed by flow cytometry as described above. The background level of immunofluorescence was determined by incubating cells with FITC-conjugated mouse IgG (isotype control).
On the technique in general: In flow cytometry, cells or beads pass a laser one at a time.

In assay [5] the target is T1, BSA (UniProt P02769 25-607, coupled to tosylactivated magnetic beads).
T1 construct: Negative control for the bead pull-down; also called BSA control
T1 sequence (P02769 25-607 limits assumed): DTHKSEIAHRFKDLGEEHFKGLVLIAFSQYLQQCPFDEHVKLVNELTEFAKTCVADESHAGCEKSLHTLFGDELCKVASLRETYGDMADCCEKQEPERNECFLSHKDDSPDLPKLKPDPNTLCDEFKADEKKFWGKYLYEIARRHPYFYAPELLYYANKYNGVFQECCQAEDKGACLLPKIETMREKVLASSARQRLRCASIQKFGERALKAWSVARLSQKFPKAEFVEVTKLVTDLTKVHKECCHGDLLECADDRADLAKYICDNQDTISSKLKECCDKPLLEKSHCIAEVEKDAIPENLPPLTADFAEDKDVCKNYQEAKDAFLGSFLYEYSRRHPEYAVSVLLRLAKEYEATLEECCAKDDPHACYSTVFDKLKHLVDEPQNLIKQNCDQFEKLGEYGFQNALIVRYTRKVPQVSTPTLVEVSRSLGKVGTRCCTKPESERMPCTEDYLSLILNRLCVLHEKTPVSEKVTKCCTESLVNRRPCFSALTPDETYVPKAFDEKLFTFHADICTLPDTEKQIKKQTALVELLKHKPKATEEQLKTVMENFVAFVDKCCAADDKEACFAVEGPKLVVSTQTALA
The assay is described as follows: pull-down from T cells with BSA-coated magnetic beads, Western blot.

The target of assay [6] is B1. The assay is described as follows: pull-down from T cells with Gal-2-coated magnetic beads, Western blot; agrees with antibody blocking in flow cytometry. How it is done: A) Cells were preincubated with CD3, CD7, and β1 mAb (1:100 dilution) for 1 h at RT and then cultured for additional 24 h in the presence of 5 μg/ml galectin-2 coupled to biotin. Cells were then harvested and binding of galectin-2 to T cells determined by two-color flow cytometry using streptavidin labelled-APC to detect biotinylated sites. B) Galectin-1 coimmunoprecipitates with CD3, CD7 and β1 integrin, whereas galectin-2 coimmunoprecipitate only with integrin β1. Cells were incubated with galectin-1 or -2 coated tosyl-activated beads and subsequently lysed. Bead-bound cell fragments were separated magnetically and immunoblotted for CD3, CD7 or β1. Both graphs are representative for four different experiments yielding similar results.
For separation of galectin-2-associated complexes, 1×10⁸ tosylactivated, supermagnetic, polysterene coated beads (Dynalbeads, Dynal Biotech, Oslo, Norway) were coated either with 350 μg BSA, Galectin-1, Galectin-2, CD7, integrin-β1 or OKT3 overnight at 37° C. using tilt rotation. After incubation, the beads were washed in 0.2 M Tris (pH 8.5 containing 0.1% BSA), and then incubated with 2×10⁶ PBT for 1 h at 37° C. […]

“galectin-1: prototype β-galactoside binding lectin used for comparison”: the “cells adhering to collagen type I” value in assay [1] (without galectin 22.1±3.5%) stood at 9.2±3.5%. In addition, the “cells adhering to fibronectin” value in assay [1] (without galectin 26.3±5.6%) came out at 14.0±4.6%. For the same molecule, in assay [2], the “cyclin B1 expression” value stood at 1%. Moreover, the glycoproteins co-immunoprecipitated result in assay [3] is “coimmunoprecipitates with CD3, CD7 and β1 integrin”. In addition, the β4 integrin accessibility entry in assay [4] is reported as “neither galectin-1 nor galectin-2 changed”. In assay [4] (50 μg/ml), the “integrin α5 accessibility” value is reported as “downregulated” and the “integrin β1 accessibility” value is “downregulated”. Besides, the “integrin a5 accessibility” value in assay [4] (second statement) is recorded as “slightly upregulated”.
On to B1, for which the binding result in assay [5] is recorded as “no binding”.

B2: Galectin-2 (ligand, UniProt P05162 1-132, looked up)
chain: MAGELEVKNMDMKPGSTLKITGSIADGTDGFVINLGQGTDKLNLHFNPRFSESTIVCNSLDGSNWGQEQREDHLCFSPGSEVKFTVTFESDKFKVKLPDGHELTFPNRLGHSHLSYLSVRGGFNMSSFKLKE
modifications: biotinylated (sites not given) in the flow cytometry binding assays; coupled to tosylactivated magnetic beads in the pull-down
notes: The NcoI site gave a Thr(Ser)2Ala substitution: Thr in human, Ser in rat; also called Gal-2; biotinylated Gal-2
On to B2, for which the binding result in assay [6] is “no binding”.
